Assay results: ChEMBL document CHEMBL2439954, “3D-QSAR using pharmacophore-based alignment and virtual screening for discovery of novel MCF-7 cell line inhibitors” (Eur J Med Chem, 2013)

System: MCF7
Experiment: Cytotoxicity against human MCF7 cells after 48 hrs by MTT assay
Format: functional, cell-based
Details: MCF7, 48 h

Row | Structure (SMILES) | IC50 [µM]
1 | CCc1cccc(CC)c1N(COC)C(=O)Cn1c(CO)nc2ccccc21 | 123
2 | Nc1ccc(-c2nc3cc(N)ccc3n2CCO)cc1 | > 200
3 | CC(C)CC(C(=O)Nc1cccc(O)c1)N1C(=O)c2ccccc2C1=O (stereo not given) | 148
4 | Cc1ccc(C)c(C(=O)C2=C(O)C(=O)N(Cc3ccco3)C2c2cccnc2)c1 (stereo not given) | > 200
5 | COc1cccc(NC(=O)COc2ccc(C3C(C#N)=C(N)Oc4[nH]nc(C)c43)cc2)c1 (stereo not given) | 38.5
6 | Nc1ccc(Oc2ccc3nc(-c4ccccc4)c(-c4ccc(N)cc4)nc3c2)cc1 | 65.4
7 | Cc1ccc(/C=N\NC(=O)Cn2c(-c3nonc3N)nc3ccccc32)cc1 | 172
8 | COc1ccc(-n2c(SCC(=O)Nc3cccc(C(C)=O)c3)nnc2-c2ccccc2OC)cc1 | > 200
9 | COc1cc(C2C(C(=O)c3ccc(F)cc3)=C(O)C(=O)N2Cc2cccnc2)ccc1O (stereo not given) | 185
10 | COc1ccc(-c2cc(C(F)(F)F)n3ncc(C(=O)NC(C)c4ccccc4)c3n2)cc1OC (stereo not given) | 30.2
11 | COc1ccc(COC(=O)/C(=C(\C)NC(N)=O)C(C)c2ccccc2OCc2ccccc2)cc1 (stereo not given) | 108
12 | Cc1cc(C(=O)C2=C(O)C(=O)N(CCN3CCOCC3)C2c2ccncc2)ccc1OCC(C)C (stereo not given) | 151
13 | CCOc1cccc(C(=O)C2=C(O)C(=O)N(Cc3ccco3)C2c2cccnc2)c1 (stereo not given) | 181
14 | C[C@]12CC[C@H](O)CC1=CC[C@@H]1[C@@H]2CC[C@]2(C)C(=O)CC[C@@H]12 [PRASTERONE] | > 200
15 | CC/C(=C(\c1ccccc1)c1ccc(OCCN(C)C)cc1)c1ccccc1 [TAMOXIFEN] | 15.2
